Assay results from patent publication US11445724B2, “Insecticidal compounds” (SYNGENTA PARTICIPATIONS AG, priority 2013, dated 2022).

Assays:
Assay type in all cases: in vivo
[1] = tested on: Tetranychus urticae (Two-spotted spider mite); test: Tetranychus urticae (Two-spotted spider mite) mortality, sprayed bean leaf discs; details: foliar, 192 h, 200 ppm spray on bean leaf discs, mixed ages, egg, larval and adult mortality after 8 days
[2] = tested on: Spodoptera littoralis (Egyptian cotton leafworm); test: Spodoptera littoralis (Egyptian cotton leafworm) mortality, sprayed cotton leaf discs; details: foliar, 72 h, 200 ppm spray on cotton leaf discs, L1 larvae, mortality 3 DAT
[3] = tested on: Myzus persicae (Green peach aphid); test: Myzus persicae (Green peach aphid) mortality, sprayed sunflower leaf discs; details: foliar, 144 h, 200 ppm spray on sunflower leaf discs, mixed ages, mortality 6 DAT
[4] = tested on: Diabrotica balteata (Corn root worm); test: Diabrotica balteata (Corn root worm) larval mortality, artificial diet in 24-well MTP; details: 120 h, application rate 200 ppm (concentration in well 18 ppm), L2 larvae, larval mortality after 5 days
[5] = tested on: Plutella xylostella (Diamond back moth); test: Plutella xylostella (Diamond back moth) larval mortality, artificial diet in 24-well MTP; details: 144 h, application rate 200 ppm (concentration in well 18 ppm), L2 larvae, larval mortality after 6 days
[6] = tested on: Thrips tabaci (Onion thrips); test: Thrips tabaci (Onion thrips) mortality, sprayed sunflower leaf discs; details: foliar, 168 h, 200 ppm spray on sunflower leaf discs, mixed ages, mortality after 7 days
[7] = tested on: Myzus persicae (Green peach aphid); test: Myzus persicae (Green peach aphid) mortality, test compounds mixed with Sucrose solution under Parafilm; details: 120 h, 12.5 ppm in Sucrose solution, infested pea seedlings on Parafilm, mortality 5 days after infestation

O=C(Nc1cccc(C(=O)Nc2c(Br)cc(C(F)(C(F)(F)F)C(F)(F)F)cc2OC(F)F)c1F)c1ccccc1Cl [Compound 21]
≥ 80%: pest or weed control at 200 ppm [1] | pest or weed control at 200 ppm [2] | pest or weed control at 200 ppm [3] | pest or weed control at 200 ppm [4] | pest or weed control at 200 ppm [5] | pest or weed control at 200 ppm [6] | pest or weed control at 12.5 ppm [7]

O=C(Nc1cccc(C(=O)Nc2c(Br)cc(C(F)(C(F)(F)F)C(F)(F)F)cc2OC(F)F)c1F)c1ccc([N+](=O)[O-])cc1 [Compound 22]
≥ 80%: pest or weed control at 200 ppm [1] | pest or weed control at 200 ppm [2] | pest or weed control at 200 ppm [3] | pest or weed control at 200 ppm [4] | pest or weed control at 200 ppm [5] | pest or weed control at 200 ppm [6] | pest or weed control at 12.5 ppm [7]

Cc1ccc(C(=O)Nc2cccc(C(=O)Nc3c(Br)cc(C(F)(C(F)(F)F)C(F)(F)F)cc3OC(F)F)c2F)cc1 [Compound 23]
≥ 80%: pest or weed control at 200 ppm [1] | pest or weed control at 200 ppm [2] | pest or weed control at 200 ppm [3] | pest or weed control at 200 ppm [4] | pest or weed control at 200 ppm [5] | pest or weed control at 200 ppm [6] | pest or weed control at 12.5 ppm [7]

O=C(Nc1cccc(C(=O)Nc2c(Br)cc(C(F)(C(F)(F)F)C(F)(F)F)cc2OC(F)F)c1F)c1cc(Cl)ccc1F [Compound 24]
≥ 80%: pest or weed control at 200 ppm [1] | pest or weed control at 200 ppm [2] | pest or weed control at 200 ppm [3] | pest or weed control at 200 ppm [4] | pest or weed control at 200 ppm [5] | pest or weed control at 200 ppm [6] | pest or weed control at 12.5 ppm [7]

O=C(Nc1cccc(C(=O)Nc2c(Br)cc(C(F)(C(F)(F)F)C(F)(F)F)cc2OC(F)F)c1F)c1ccc([N+](=O)[O-])cc1Cl [Compound 25]
≥ 80%: pest or weed control at 200 ppm [1] | pest or weed control at 200 ppm [2] | pest or weed control at 200 ppm [3] | pest or weed control at 200 ppm [4] | pest or weed control at 200 ppm [5] | pest or weed control at 200 ppm [6] | pest or weed control at 12.5 ppm [7]

O=C(Nc1cccc(C(=O)Nc2c(Br)cc(C(F)(C(F)(F)F)C(F)(F)F)cc2OC(F)F)c1F)c1ccc(OC(F)(F)F)cc1 [Compound 26]
≥ 80%: pest or weed control at 200 ppm [1] | pest or weed control at 200 ppm [2] | pest or weed control at 200 ppm [3] | pest or weed control at 200 ppm [4] | pest or weed control at 200 ppm [5] | pest or weed control at 200 ppm [6] | pest or weed control at 12.5 ppm [7]

O=C(Nc1cccc(C(=O)Nc2c(Br)cc(C(F)(C(F)(F)F)C(F)(F)F)cc2OC(F)F)c1F)c1ccc(F)c(C(F)(F)F)c1 [Compound 27]
≥ 80%: pest or weed control at 200 ppm [1] | pest or weed control at 200 ppm [2] | pest or weed control at 200 ppm [3] | pest or weed control at 200 ppm [4] | pest or weed control at 200 ppm [5] | pest or weed control at 200 ppm [6] | pest or weed control at 12.5 ppm [7]

O=C(Nc1cccc(C(=O)Nc2c(Br)cc(C(F)(C(F)(F)F)C(F)(F)F)cc2OC(F)F)c1F)c1ccc(C(F)(F)F)cc1 [Compound 28]
≥ 80%: pest or weed control at 200 ppm [1] | pest or weed control at 200 ppm [2] | pest or weed control at 200 ppm [3] | pest or weed control at 200 ppm [4] | pest or weed control at 200 ppm [5] | pest or weed control at 200 ppm [6] | pest or weed control at 12.5 ppm [7]

O=C(Nc1cccc(C(=O)Nc2c(Br)cc(C(F)(C(F)(F)F)C(F)(F)F)cc2OC(F)F)c1F)c1ccccc1 [Compound 31]
≥ 80%: pest or weed control at 200 ppm [1] | pest or weed control at 200 ppm [2] | pest or weed control at 200 ppm [3] | pest or weed control at 200 ppm [4] | pest or weed control at 200 ppm [5] | pest or weed control at 200 ppm [6] | pest or weed control at 12.5 ppm [7]

O=C(Nc1cccc(C(=O)Nc2c(Br)cc(C(F)(C(F)(F)F)C(F)(F)F)cc2OC(F)F)c1F)c1ccc(F)cc1 [Compound 32]
≥ 80%: pest or weed control at 200 ppm [1] | pest or weed control at 200 ppm [2] | pest or weed control at 200 ppm [3] | pest or weed control at 200 ppm [4] | pest or weed control at 200 ppm [5] | pest or weed control at 200 ppm [6] | pest or weed control at 12.5 ppm [7]

O=C(Nc1cccc(C(=O)Nc2c(Br)cc(C(F)(C(F)(F)F)C(F)(F)F)cc2OC(F)F)c1F)c1ccc(F)cc1Cl [Compound 36]
≥ 80%: pest or weed control at 200 ppm [1] | pest or weed control at 200 ppm [2] | pest or weed control at 200 ppm [3] | pest or weed control at 200 ppm [4] | pest or weed control at 200 ppm [5] | pest or weed control at 200 ppm [6] | pest or weed control at 12.5 ppm [7]

O=C(Nc1cccc(C(=O)Nc2c(Br)cc(C(F)(C(F)(F)F)C(F)(F)F)cc2OC(F)F)c1F)c1cccc(F)c1F [Compound 38]
≥ 80%: pest or weed control at 200 ppm [1] | pest or weed control at 200 ppm [2] | pest or weed control at 200 ppm [3] | pest or weed control at 200 ppm [4] | pest or weed control at 200 ppm [5] | pest or weed control at 200 ppm [6] | pest or weed control at 12.5 ppm [7]

COc1c(NC(=O)c2ccc([N+](=O)[O-])cc2)cccc1C(=O)Nc1c(Br)cc(C(F)(C(F)(F)F)C(F)(F)F)cc1OC(F)F [Compound 39]
≥ 80%: pest or weed control at 200 ppm [1] | pest or weed control at 200 ppm [2] | pest or weed control at 200 ppm [3] | pest or weed control at 200 ppm [4] | pest or weed control at 200 ppm [5] | pest or weed control at 200 ppm [6] | pest or weed control at 12.5 ppm [7]

O=C(Nc1cccc(C(=O)Nc2c(Br)cc(C(F)(C(F)(F)F)C(F)(F)F)cc2OC(F)F)c1F)c1ccc(F)cc1F [Compound 40]
≥ 80%: pest or weed control at 200 ppm [1] | pest or weed control at 200 ppm [2] | pest or weed control at 200 ppm [3] | pest or weed control at 200 ppm [4] | pest or weed control at 200 ppm [5] | pest or weed control at 200 ppm [6] | pest or weed control at 12.5 ppm [7]

COc1c(NC(=O)c2ccc([N+](=O)[O-])cc2Cl)cccc1C(=O)Nc1c(Br)cc(C(F)(C(F)(F)F)C(F)(F)F)cc1OC(F)F [Compound 47]
≥ 80%: pest or weed control at 200 ppm [1] | pest or weed control at 200 ppm [2] | pest or weed control at 200 ppm [3] | pest or weed control at 200 ppm [4] | pest or weed control at 200 ppm [5] | pest or weed control at 200 ppm [6] | pest or weed control at 12.5 ppm [7]

O=C(Nc1cccc(C(=O)Nc2c(Cl)cc(C(F)(C(F)(F)F)C(F)(F)F)cc2OC(F)F)c1F)c1ccc([N+](=O)[O-])cc1 [Compound 49]
≥ 80%: pest or weed control at 200 ppm [1] | pest or weed control at 200 ppm [2] | pest or weed control at 200 ppm [3] | pest or weed control at 200 ppm [4] | pest or weed control at 200 ppm [5] | pest or weed control at 200 ppm [6] | pest or weed control at 12.5 ppm [7]

COc1c(NC(=O)c2ccc(OC(F)(F)F)cc2)cccc1C(=O)Nc1c(Br)cc(C(F)(C(F)(F)F)C(F)(F)F)cc1OC(F)F [Compound 50]
≥ 80%: pest or weed control at 200 ppm [1] | pest or weed control at 200 ppm [2] | pest or weed control at 200 ppm [3] | pest or weed control at 200 ppm [4] | pest or weed control at 200 ppm [5] | pest or weed control at 200 ppm [6] | pest or weed control at 12.5 ppm [7]

Cc1ccc(C(=O)Nc2cccc(C(=O)Nc3c(Cl)cc(C(F)(C(F)(F)F)C(F)(F)F)cc3OC(F)F)c2F)cc1 [Compound 51]
≥ 80%: pest or weed control at 200 ppm [1] | pest or weed control at 200 ppm [2] | pest or weed control at 200 ppm [3] | pest or weed control at 200 ppm [4] | pest or weed control at 200 ppm [5] | pest or weed control at 200 ppm [6] | pest or weed control at 12.5 ppm [7]

Cc1cc(F)ccc1C(=O)Nc1cccc(C(=O)Nc2c(Cl)cc(C(F)(C(F)(F)F)C(F)(F)F)cc2OC(F)F)c1F [Compound 53]
≥ 80%: pest or weed control at 200 ppm [1] | pest or weed control at 200 ppm [2] | pest or weed control at 200 ppm [3] | pest or weed control at 200 ppm [4] | pest or weed control at 200 ppm [5] | pest or weed control at 200 ppm [6] | pest or weed control at 12.5 ppm [7]

COc1c(NC(=O)c2ccc(C(F)(F)F)cc2)cccc1C(=O)Nc1c(Br)cc(C(F)(C(F)(F)F)C(F)(F)F)cc1OC(F)F [Compound 54]
≥ 80%: pest or weed control at 200 ppm [1] | pest or weed control at 200 ppm [2] | pest or weed control at 200 ppm [3] | pest or weed control at 200 ppm [4] | pest or weed control at 200 ppm [5] | pest or weed control at 200 ppm [6] | pest or weed control at 12.5 ppm [7]

O=C(Nc1cccc(C(=O)Nc2c(Cl)cc(C(F)(C(F)(F)F)C(F)(F)F)cc2OC(F)F)c1F)c1ccc([N+](=O)[O-])cc1Cl [Compound 57]
≥ 80%: pest or weed control at 200 ppm [1] | pest or weed control at 200 ppm [2] | pest or weed control at 200 ppm [3] | pest or weed control at 200 ppm [4] | pest or weed control at 200 ppm [5] | pest or weed control at 200 ppm [6] | pest or weed control at 12.5 ppm [7]

O=C(Nc1cccc(C(=O)Nc2c(Cl)cc(C(F)(C(F)(F)F)C(F)(F)F)cc2OC(F)F)c1F)c1ccc(OC(F)(F)F)cc1 [Compound 60]
≥ 80%: pest or weed control at 200 ppm [1] | pest or weed control at 200 ppm [2] | pest or weed control at 200 ppm [3] | pest or weed control at 200 ppm [4] | pest or weed control at 200 ppm [5] | pest or weed control at 200 ppm [6] | pest or weed control at 12.5 ppm [7]

COc1c(NC(=O)c2ccc(F)cc2)cccc1C(=O)Nc1c(Br)cc(C(F)(C(F)(F)F)C(F)(F)F)cc1OC(F)F [Compound 61]
≥ 80%: pest or weed control at 200 ppm [1] | pest or weed control at 200 ppm [2] | pest or weed control at 200 ppm [3] | pest or weed control at 200 ppm [4] | pest or weed control at 200 ppm [5] | pest or weed control at 200 ppm [6] | pest or weed control at 12.5 ppm [7]
